Test results published in ChEMBL document CHEMBL5653615 (J Biol Chem, 2013).

How the values were obtained:
[1] = biological target: Tyrosine-protein kinase Fer (Homo sapiens) (UniProt P16591); experiment: Inhibition of human FER at 500 nM by HotSpot assay relative to control
Homo sapiens = organism: Homo sapiens; experiment: Inhibition of human TAO1 at 500 nM by HotSpot assay relative to control
[2] = biological target: Leukocyte tyrosine kinase receptor (Homo sapiens) (UniProt P29376); experiment: Inhibition of human LTK at 500 nM by HotSpot assay relative to control
[3] = biological target: Protein kinase C alpha type (Homo sapiens) (UniProt P17252); experiment: Inhibition of human PKCa at 500 nM by HotSpot assay relative to control
[4] = biological target: T1, Rhodopsin kinase GRK7 (Homo sapiens) (UniProt Q8WTQ7); experiment: Inhibition of human GRK7 at 500 nM by HotSpot assay relative to control
T1 sequence (whole entry): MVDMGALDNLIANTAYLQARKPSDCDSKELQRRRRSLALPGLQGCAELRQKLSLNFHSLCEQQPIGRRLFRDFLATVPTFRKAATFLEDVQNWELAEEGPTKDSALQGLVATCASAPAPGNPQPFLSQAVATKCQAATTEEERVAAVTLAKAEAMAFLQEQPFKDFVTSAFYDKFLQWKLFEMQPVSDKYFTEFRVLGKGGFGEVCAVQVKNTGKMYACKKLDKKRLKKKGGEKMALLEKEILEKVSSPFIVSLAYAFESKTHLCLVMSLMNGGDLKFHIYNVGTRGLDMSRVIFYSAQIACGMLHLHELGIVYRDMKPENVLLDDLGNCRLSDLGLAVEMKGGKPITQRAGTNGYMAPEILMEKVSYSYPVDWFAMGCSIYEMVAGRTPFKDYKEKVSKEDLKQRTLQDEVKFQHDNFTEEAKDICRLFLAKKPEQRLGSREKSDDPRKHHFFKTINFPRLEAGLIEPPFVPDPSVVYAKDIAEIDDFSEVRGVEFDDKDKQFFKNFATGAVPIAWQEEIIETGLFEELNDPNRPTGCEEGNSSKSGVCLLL

[5] = biological target: Insulin-like growth factor 1 receptor (Homo sapiens, UniProt P08069); experiment: Inhibition of inactive form of IGF-1R (unknown origin) kinase domain incubated for 1 hr by [gamma-33P]ATP assay
[6] = biological target: Tyrosine-protein kinase Fyn (Homo sapiens) (UniProt P06241); experiment: Inhibition of human FYN at 500 nM by HotSpot assay relative to control
[7] = biological target: Mitogen-activated protein kinase 11 (Homo sapiens) (UniProt Q15759); experiment: Inhibition of human MAPK11 at 500 nM by HotSpot assay relative to control
[8] = biological target: Serine/threonine-protein kinase 10 (Homo sapiens) (UniProt O94804); experiment: Inhibition of human LOK at 500 nM by HotSpot assay relative to control
[9] = biological target: Death-associated protein kinase 3 (Homo sapiens) (UniProt O43293); experiment: Inhibition of human DAPK3 at 500 nM by HotSpot assay relative to control
[10] = biological target: Glycogen synthase kinase-3 beta (Homo sapiens) (UniProt P49841); experiment: Inhibition of human GSK3b at 500 nM by HotSpot assay relative to control
[11] = biological target: T2, Serine/threonine-protein kinase D1 (Homo sapiens) (UniProt Q15139); experiment: Inhibition of human PRKD1 at 500 nM by HotSpot assay relative to control
T2 sequence (whole entry): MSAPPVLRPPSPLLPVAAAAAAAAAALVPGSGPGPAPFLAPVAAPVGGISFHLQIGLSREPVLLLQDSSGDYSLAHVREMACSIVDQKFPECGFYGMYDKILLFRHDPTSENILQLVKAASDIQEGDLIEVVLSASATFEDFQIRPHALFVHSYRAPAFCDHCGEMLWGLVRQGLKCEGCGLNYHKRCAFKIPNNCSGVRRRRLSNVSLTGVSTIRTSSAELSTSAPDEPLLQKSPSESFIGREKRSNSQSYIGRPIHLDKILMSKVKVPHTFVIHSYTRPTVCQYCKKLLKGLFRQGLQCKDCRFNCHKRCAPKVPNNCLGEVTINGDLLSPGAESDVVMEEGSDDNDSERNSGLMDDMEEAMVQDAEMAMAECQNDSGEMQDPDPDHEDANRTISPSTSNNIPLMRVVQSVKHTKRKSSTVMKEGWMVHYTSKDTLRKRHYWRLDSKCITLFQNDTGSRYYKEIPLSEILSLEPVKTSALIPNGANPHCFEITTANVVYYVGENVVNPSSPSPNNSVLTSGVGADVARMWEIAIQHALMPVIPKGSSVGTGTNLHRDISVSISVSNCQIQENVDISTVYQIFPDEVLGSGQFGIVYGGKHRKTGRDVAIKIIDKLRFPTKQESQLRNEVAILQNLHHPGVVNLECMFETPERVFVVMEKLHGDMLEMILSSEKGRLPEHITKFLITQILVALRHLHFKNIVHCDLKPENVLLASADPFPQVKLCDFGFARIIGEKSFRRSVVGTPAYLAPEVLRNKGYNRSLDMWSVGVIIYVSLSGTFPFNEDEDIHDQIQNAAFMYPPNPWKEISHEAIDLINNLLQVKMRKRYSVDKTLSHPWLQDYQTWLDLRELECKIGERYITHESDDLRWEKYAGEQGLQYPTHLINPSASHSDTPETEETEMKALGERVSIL

[12] = biological target: T3, cGMP-dependent protein kinase 1 (Homo sapiens) (UniProt Q13976); experiment: Inhibition of human PKG1b at 500 nM by HotSpot assay relative to control
T3 sequence (whole entry): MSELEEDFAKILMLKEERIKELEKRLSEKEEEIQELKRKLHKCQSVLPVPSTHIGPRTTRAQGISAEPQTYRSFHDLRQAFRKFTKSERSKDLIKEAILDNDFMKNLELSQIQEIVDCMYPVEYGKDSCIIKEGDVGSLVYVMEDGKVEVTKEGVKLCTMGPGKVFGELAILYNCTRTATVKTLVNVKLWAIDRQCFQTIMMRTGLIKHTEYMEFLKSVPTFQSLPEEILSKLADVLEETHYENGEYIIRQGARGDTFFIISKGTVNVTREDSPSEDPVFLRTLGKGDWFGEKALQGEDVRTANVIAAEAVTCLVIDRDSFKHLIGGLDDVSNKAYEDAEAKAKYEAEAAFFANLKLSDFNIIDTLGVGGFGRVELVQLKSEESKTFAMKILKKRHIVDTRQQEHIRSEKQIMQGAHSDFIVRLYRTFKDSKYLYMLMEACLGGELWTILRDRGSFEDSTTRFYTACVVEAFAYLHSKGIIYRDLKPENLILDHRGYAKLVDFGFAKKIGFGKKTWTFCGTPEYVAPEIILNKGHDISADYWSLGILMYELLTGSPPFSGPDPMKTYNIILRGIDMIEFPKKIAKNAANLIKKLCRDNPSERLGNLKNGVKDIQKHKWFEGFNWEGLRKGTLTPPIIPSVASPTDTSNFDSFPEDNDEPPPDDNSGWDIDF

Death-associated protein kinase 3 (Homo sapiens), sequence (O43293 whole entry, looked up): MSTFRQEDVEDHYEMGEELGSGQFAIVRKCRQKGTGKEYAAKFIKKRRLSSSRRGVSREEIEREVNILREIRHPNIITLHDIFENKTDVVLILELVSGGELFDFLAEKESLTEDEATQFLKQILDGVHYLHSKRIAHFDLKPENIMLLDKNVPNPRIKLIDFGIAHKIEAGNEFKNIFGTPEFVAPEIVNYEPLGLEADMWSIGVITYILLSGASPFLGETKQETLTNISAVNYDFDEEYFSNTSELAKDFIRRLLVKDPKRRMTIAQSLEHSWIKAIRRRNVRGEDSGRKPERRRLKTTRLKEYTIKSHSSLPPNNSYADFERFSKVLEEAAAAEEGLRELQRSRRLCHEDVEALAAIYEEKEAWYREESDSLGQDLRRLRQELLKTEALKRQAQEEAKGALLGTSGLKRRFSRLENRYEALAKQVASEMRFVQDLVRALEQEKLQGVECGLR
Glycogen synthase kinase-3 beta (Homo sapiens), sequence (P49841 whole entry, looked up): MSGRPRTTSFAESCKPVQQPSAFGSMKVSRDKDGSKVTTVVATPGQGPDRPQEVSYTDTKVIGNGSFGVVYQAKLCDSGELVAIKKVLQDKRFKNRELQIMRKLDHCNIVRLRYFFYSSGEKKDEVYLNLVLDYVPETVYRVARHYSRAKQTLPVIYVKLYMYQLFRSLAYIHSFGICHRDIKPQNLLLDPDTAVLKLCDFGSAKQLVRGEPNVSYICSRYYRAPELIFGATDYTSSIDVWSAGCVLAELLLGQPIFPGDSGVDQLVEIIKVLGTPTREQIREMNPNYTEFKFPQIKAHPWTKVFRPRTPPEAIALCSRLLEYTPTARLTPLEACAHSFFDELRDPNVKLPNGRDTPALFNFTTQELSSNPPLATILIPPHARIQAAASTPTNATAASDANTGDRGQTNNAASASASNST
Insulin-like growth factor 1 receptor, sequence (P08069 31-736 limits assumed): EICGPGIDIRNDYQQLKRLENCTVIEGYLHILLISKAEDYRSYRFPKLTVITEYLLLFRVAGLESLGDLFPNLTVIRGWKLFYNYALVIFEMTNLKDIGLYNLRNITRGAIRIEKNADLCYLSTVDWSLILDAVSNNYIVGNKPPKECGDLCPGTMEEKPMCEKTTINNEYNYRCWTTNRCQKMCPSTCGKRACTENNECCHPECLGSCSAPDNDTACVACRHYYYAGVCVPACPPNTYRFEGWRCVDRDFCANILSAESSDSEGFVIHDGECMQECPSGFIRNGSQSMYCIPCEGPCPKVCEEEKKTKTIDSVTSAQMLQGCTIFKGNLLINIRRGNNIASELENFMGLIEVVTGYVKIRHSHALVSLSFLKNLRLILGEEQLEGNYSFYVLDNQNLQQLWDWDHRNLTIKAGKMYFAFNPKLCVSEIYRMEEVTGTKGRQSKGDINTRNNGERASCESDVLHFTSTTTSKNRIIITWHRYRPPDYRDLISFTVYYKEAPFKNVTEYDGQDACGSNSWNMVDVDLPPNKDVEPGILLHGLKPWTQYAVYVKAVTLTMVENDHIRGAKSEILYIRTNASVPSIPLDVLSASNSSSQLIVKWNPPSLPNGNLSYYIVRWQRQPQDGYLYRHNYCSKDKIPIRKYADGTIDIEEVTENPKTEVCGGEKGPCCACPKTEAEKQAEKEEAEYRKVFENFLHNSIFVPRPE
Insulin-like growth factor 1 receptor, sequence (P08069 741-1367 limits assumed): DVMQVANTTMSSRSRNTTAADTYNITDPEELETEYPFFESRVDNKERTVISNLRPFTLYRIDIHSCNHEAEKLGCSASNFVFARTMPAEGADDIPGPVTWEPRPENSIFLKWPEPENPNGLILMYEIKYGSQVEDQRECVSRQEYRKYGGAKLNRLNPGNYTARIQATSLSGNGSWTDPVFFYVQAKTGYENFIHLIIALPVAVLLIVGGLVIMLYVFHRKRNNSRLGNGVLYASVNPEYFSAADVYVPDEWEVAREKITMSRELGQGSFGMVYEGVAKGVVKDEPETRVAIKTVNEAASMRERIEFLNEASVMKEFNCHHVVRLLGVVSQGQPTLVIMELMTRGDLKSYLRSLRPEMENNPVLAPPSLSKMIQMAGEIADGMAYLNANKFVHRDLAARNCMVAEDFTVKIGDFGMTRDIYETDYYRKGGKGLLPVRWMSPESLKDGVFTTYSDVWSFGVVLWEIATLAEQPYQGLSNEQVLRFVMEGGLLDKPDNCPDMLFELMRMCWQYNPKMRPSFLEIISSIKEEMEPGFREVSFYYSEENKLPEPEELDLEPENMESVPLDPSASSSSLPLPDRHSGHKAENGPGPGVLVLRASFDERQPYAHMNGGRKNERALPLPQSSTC
Mitogen-activated protein kinase 11 (Homo sapiens), sequence (Q15759 whole entry): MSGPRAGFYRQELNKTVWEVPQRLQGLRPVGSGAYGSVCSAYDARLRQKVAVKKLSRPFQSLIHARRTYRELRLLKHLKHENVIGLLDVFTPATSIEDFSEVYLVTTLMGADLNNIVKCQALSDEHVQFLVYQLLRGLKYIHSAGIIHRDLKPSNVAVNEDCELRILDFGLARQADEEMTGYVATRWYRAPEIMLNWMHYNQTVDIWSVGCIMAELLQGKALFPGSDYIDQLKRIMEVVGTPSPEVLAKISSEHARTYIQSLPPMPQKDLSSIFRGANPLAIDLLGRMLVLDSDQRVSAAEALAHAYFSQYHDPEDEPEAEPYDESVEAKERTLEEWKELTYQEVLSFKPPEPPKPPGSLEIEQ
Leukocyte tyrosine kinase receptor (Homo sapiens), sequence (P29376 whole entry): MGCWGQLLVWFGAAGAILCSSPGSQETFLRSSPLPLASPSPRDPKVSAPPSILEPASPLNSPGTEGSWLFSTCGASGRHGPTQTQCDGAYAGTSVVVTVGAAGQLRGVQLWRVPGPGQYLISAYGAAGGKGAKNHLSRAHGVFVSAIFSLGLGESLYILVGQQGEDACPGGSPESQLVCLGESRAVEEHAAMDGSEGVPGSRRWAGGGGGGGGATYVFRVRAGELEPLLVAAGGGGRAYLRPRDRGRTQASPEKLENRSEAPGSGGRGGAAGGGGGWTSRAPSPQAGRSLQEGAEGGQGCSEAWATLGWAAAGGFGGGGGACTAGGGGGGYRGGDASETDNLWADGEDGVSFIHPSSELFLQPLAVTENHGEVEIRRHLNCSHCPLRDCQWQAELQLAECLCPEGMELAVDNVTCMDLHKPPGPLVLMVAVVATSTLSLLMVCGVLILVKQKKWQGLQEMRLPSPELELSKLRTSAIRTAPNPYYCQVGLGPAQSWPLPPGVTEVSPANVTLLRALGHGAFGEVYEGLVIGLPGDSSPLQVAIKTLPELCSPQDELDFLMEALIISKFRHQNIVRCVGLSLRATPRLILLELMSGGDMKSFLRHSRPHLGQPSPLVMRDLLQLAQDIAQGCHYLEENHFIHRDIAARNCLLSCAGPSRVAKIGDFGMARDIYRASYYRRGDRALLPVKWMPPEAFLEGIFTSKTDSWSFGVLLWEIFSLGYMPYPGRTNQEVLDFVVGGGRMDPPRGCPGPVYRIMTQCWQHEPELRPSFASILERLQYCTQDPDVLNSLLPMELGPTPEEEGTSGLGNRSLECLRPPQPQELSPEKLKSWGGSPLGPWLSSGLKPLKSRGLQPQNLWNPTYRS
Tyrosine-protein kinase Fer (Homo sapiens), sequence (P16591 whole entry, looked up): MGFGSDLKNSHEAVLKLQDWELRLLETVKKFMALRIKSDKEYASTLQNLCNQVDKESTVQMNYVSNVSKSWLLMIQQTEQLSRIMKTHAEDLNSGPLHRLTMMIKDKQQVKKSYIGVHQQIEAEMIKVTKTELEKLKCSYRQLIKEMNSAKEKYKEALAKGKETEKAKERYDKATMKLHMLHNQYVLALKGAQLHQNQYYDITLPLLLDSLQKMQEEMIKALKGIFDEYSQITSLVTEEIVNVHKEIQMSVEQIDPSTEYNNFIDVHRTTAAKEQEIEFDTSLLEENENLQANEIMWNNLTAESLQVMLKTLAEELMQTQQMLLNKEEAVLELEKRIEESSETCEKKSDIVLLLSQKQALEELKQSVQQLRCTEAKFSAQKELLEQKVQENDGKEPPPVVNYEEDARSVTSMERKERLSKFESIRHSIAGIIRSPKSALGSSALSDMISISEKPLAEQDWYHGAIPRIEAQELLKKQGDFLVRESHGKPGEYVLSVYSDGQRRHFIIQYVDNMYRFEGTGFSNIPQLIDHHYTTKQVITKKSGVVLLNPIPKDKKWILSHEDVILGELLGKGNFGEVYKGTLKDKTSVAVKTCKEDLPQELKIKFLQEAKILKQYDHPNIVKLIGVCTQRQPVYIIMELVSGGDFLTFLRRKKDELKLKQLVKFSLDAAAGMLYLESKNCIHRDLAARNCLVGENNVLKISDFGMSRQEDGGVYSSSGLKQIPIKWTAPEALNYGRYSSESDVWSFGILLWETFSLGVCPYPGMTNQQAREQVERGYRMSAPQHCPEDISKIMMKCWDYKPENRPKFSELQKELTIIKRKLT

Compound | inhibition [1] | inhibition (Homo sapiens) | inhibition [2] | inhibition [3] | inhibition [4] | IC50 [5] | inhibition [6] | inhibition [7] | inhibition [8] | inhibition [9] | inhibition [10] | inhibition [11] | inhibition [12]
Oc1n[nH]c2nnc(-c3c(-c4ccccc4)nn4ccccc34)cc12 | 17.4% | 1.69% | -7.87% | 14.1% | 6.89% | 10.2 µM | -0.67% | 5.77% | 5.81% | -0.67% | -9.9% | -0.59% | 10.6%
Nc1n[nH]c2nnc(-c3c(-c4ccccc4)nn4ccccc34)cc12 | 9.19% | -1.14% | 9.45% | 12.8% | 3.29% | 32.5 µM | 4.98% | 10% | 29.1% | -2.11% | -9.06% | 31.6% | 10.5%
